ChEMBL document CHEMBL3885861, “Open TG-GATES”

Organism: Rattus norvegicus
Assay: Open TG-GATES - Regimen: Single
Format: toxicity, organism-based, Sprague-Dawley
Design: regimen Single, gender Male, age 6 weeks
Conditions: in vivo, po, 100 mg/kg, route gavage, dose level Low; for APTT / Bas / Eos / Fbg / Hb / Ht / Lym / MCH / MCHC / MCV / Mono / Neu / PT / Plat / RBC / Ret / WBC: tissue Blood; for KIDNEY_L / KIDNEY_R / KIDNEY_TOTAL: tissue Kidney; for LIVER: tissue Liver; for A/G / ALP / ALT / AST / BUN / CRE / Ca / Cl / DBIL / GLC / IP / K / LDH / Na / PL / RALB / TBIL / TC / TG / TP / gamma-GTP: tissue Plasma

SMILES: C[C@H]1O[C@H](O[C@H]2[C@H](O)[C@@H](O)[C@@H](O[C@H]3[C@H](O)[C@@H](O)C(O)O[C@@H]3CO)O[C@@H]2CO)[C@H](O)[C@@H](O)[C@@H]1N[C@H]1C=C(CO)[C@@H](O)[C@H](O)[C@H]1O (some centres not stated) [ACARBOSE]
- TERMINAL_BW (3 h): 197.7 g
- APTT (3 h): 16.7 s
- Bas (3 h): 0.2%
- Eos (3 h): 0.8%
- Fbg (3 h): 274.6 mg/dL
- Hb (3 h): 13.5 g/dL
- Ht (3 h): 41.3%
- Lym (3 h): 78.4%
- MCH (3 h): 21.1 pg
- MCHC (3 h): 32.6%
- MCV (3 h): 64.8 fL
- Mono (3 h): 2%
- Neu (3 h): 17.8%
- PT (3 h): 13.6 s
- Plat (3 h): 118.3 x10_4/uL
- RBC (3 h): 639 x10_4/ul
- Ret (3 h): 8.2%
- WBC (3 h): 89.6 x10_2/uL
- KIDNEY_L (3 h): 0.9 g
- KIDNEY_R (3 h): 0.9 g
- KIDNEY_TOTAL (3 h): 1.8 g
- LIVER (3 h): 8.5 g
- A/G (3 h): 0.9
- ALP (3 h): 1409.6 IU/L
- ALT (3 h): 39.2 IU/L
- AST (3 h): 77.6 IU/L
- BUN (3 h): 10.4 mg/dL
- CRE (3 h): 0.2 mg/dL
- Ca (3 h): 10.7 mg/dL
- Cl (3 h): 104.6 meq/L
- DBIL (3 h): 0.004 mg/dL
- GLC (3 h): 172.2 mg/dL
- IP (3 h): 9.9 mg/dL
- K (3 h): 3.8 meq/L
- LDH (3 h): 60 IU/L
- Na (3 h): 141.2 meq/L
- PL (3 h): 136.4 mg/dL
- RALB (3 h): 2.5 g/dL
- TBIL (3 h): 0.062 mg/dL
- TC (3 h): 75.4 mg/dL
- TG (3 h): 39.2 mg/dL
- TP (3 h): 5.1 g/dL
- gamma-GTP (3 h): 1 IU/L
- TERMINAL_BW (6 h): 198.1 g
- APTT (6 h): 16 s
- Bas (6 h): 0%
- Eos (6 h): 1%
- Fbg (6 h): 307.2 mg/dL
- Hb (6 h): 13.4 g/dL
- Ht (6 h): 41.5%
- Lym (6 h): 78.2%
- MCH (6 h): 21 pg
- MCHC (6 h): 32.3%
- MCV (6 h): 65.1 fL
- Mono (6 h): 2.2%
- Neu (6 h): 17.8%
- PT (6 h): 13.3 s
- Plat (6 h): 117.7 x10_4/uL
- RBC (6 h): 636.8 x10_4/ul
- Ret (6 h): 8.8%
- WBC (6 h): 81.3 x10_2/uL
- KIDNEY_L (6 h): 0.9 g
- KIDNEY_R (6 h): 0.9 g
- KIDNEY_TOTAL (6 h): 1.9 g
- LIVER (6 h): 8.3 g
- A/G (6 h): 0.9
- ALP (6 h): 1322 IU/L
- ALT (6 h): 34.6 IU/L
- AST (6 h): 67.8 IU/L
- BUN (6 h): 8.4 mg/dL
- CRE (6 h): 0.2 mg/dL
- Ca (6 h): 10.8 mg/dL
- Cl (6 h): 104.2 meq/L
- DBIL (6 h): 0.002 mg/dL
- GLC (6 h): 168.2 mg/dL
- IP (6 h): 10.2 mg/dL
- K (6 h): 3.8 meq/L
- LDH (6 h): 58.4 IU/L
- Na (6 h): 141 meq/L
- PL (6 h): 133.8 mg/dL
- RALB (6 h): 2.5 g/dL
- TBIL (6 h): 0.062 mg/dL
- TC (6 h): 77.2 mg/dL
- TG (6 h): 31 mg/dL
- TP (6 h): 5.2 g/dL
- gamma-GTP (6 h): 1 IU/L
- TERMINAL_BW (9 h): 195.5 g
- APTT (9 h): 16.9 s
- Bas (9 h): 0%
- Eos (9 h): 0.8%
- Fbg (9 h): 303.8 mg/dL
- Hb (9 h): 13 g/dL
- Ht (9 h): 40.5%
- Lym (9 h): 77.4%
- MCH (9 h): 20.6 pg
- MCHC (9 h): 32.2%
- MCV (9 h): 63.9 fL
- Mono (9 h): 2.6%
- Neu (9 h): 18.4%
- PT (9 h): 13.4 s
- Plat (9 h): 124.4 x10_4/uL
- RBC (9 h): 634.4 x10_4/ul
- Ret (9 h): 8.3%
- WBC (9 h): 71.6 x10_2/uL
- KIDNEY_L (9 h): 0.9 g
- KIDNEY_R (9 h): 0.9 g
- KIDNEY_TOTAL (9 h): 1.8 g
- LIVER (9 h): 7.9 g
- A/G (9 h): 0.9
- ALP (9 h): 1274 IU/L
- ALT (9 h): 35.8 IU/L
- AST (9 h): 68.4 IU/L
- BUN (9 h): 8 mg/dL
- CRE (9 h): 0.2 mg/dL
- Ca (9 h): 10.6 mg/dL
- Cl (9 h): 105 meq/L
- DBIL (9 h): 0 mg/dL
- GLC (9 h): 178.2 mg/dL
- IP (9 h): 10 mg/dL
- K (9 h): 3.9 meq/L
- LDH (9 h): 64.2 IU/L
- Na (9 h): 141.6 meq/L
- PL (9 h): 150.4 mg/dL
- RALB (9 h): 2.5 g/dL
- TBIL (9 h): 0.058 mg/dL
- TC (9 h): 85.4 mg/dL
- TG (9 h): 61.6 mg/dL
- TP (9 h): 5.3 g/dL
- gamma-GTP (9 h): 1 IU/L
- TERMINAL_BW (24 h): 213.3 g
- APTT (24 h): 17.6 s
- Bas (24 h): 0%
- Eos (24 h): 1%
- Fbg (24 h): 286.2 mg/dL
- Hb (24 h): 13.4 g/dL
- Ht (24 h): 41%
- Lym (24 h): 76.4%
- MCH (24 h): 20.9 pg
- MCHC (24 h): 32.7%
- MCV (24 h): 63.9 fL
- Mono (24 h): 2.6%
- Neu (24 h): 19.2%
- PT (24 h): 13 s
- Plat (24 h): 114.1 x10_4/uL
- RBC (24 h): 641.4 x10_4/ul
- Ret (24 h): 7.9%
- WBC (24 h): 97.3 x10_2/uL
- KIDNEY_L (24 h): 0.9 g
- KIDNEY_R (24 h): 0.9 g
- KIDNEY_TOTAL (24 h): 1.9 g
- LIVER (24 h): 10.2 g
- A/G (24 h): 0.9
- ALP (24 h): 1382.4 IU/L
- ALT (24 h): 44.6 IU/L
- AST (24 h): 74 IU/L
- BUN (24 h): 14.4 mg/dL
- CRE (24 h): 0.2 mg/dL
- Ca (24 h): 10.9 mg/dL
- Cl (24 h): 105.4 meq/L
- DBIL (24 h): 0.008 mg/dL
- GLC (24 h): 170.8 mg/dL
- IP (24 h): 8.3 mg/dL
- K (24 h): 4.1 meq/L
- LDH (24 h): 57.8 IU/L
- Na (24 h): 142.6 meq/L
- PL (24 h): 140.8 mg/dL
- RALB (24 h): 2.6 g/dL
- TBIL (24 h): 0.056 mg/dL
- TC (24 h): 72.6 mg/dL
- TG (24 h): 76.2 mg/dL
- TP (24 h): 5.5 g/dL
- gamma-GTP (24 h): 1 IU/L
